# Data reported in paper PMC4380987 (Protein Science : A Publication of the Protein Society, 2014).
# pIC50: −log10 of the molar value.
# Molecular target: Edmanase (engineered cruzain) (Trypanosoma cruzi, UniProt P25779, C147G/G187S/A260C/L282Y)
# Type: biochemical
structure (smiles),measurement,value
"CC(=O)c1nc(Nc2ccccc2)sc1C [1-(2-anilino-5-methyl-1,3-thiazol-4-yl)-ethanone]",pIC50,2.94
